Read-outs that look alike come from different tables or passages of the source.
Experiments:
[1] = system: Bovine viral diarrhea virus (BVDV); assay: BVDV plaque-forming assay in MDBK cells; type: cell-based; conditions: even at 1 μM
Experimental: Bovine viral diarrhea virus (BVDV) is a closely related virus to HCV, belonging to the same Family, Flaviviridae. To validate the specificity of antiviral activity, BVDV infection was done with MDBK cells in the presence of compounds provided herein. MDBK cells (70 to 80% confluent) were infected with a diluted virus. Following 1 h of adsorption at 37° C., cells were washed once with DMEM, overlaid with 1.5% low-melting-point (LMP) agarose (Gibco-BRL) in MEM containing 5% HS, and incubated at 37° C. To assay for plaque-forming virus, after 3 days monolayers were fixed with 3.7% formaldehyde for 2 h at room temperature, the agarose plugs were removed, and the monolayers were stained with crystal violet.

HCV1a/2a chimeric virus = assay: HCV entry assay with HCV1a/2a chimeric virus; type: cell-based, HCV genotype 1a; conditions: compared with HCV2a chimeric virus
Text: Since HCV genotype 1 is the most prevalent genotype among the variants of HCV, we constructed an HCV1a/2a chimeric infectious clone with two cell-culture adaptive mutations introduced. Sequences for the structural proteins (including C, E1, and E2), p7, and NS2 were derived from HCV genotype 1a H77 strain. The rest of nonstructural proteins (NS3 to NS5B) and 3′ NTR were derived from HCV genotype 2a JFH strain. 5′NTR was originated from HCV2aJ6 (FIG. 7). […] Therefore, both HCV1a/2aCh virus and HCV1a/2aChLuc virus with Y361H and Q1251L mutations were successively produced in Huh7 cells and used for HCV entry assay.

HCV = assay: Combination of viral entry inhibitor with HCV protease inhibitor VX-950; type: cell-based; conditions: fixed ratio based on EC50
Experimental: Additional combination studies of Compound 1 and Compound 5 with the HCV NS3 protease inhibitor VX-950 were conducted. Compound 1 and Compound 5 were tested singly and in combination with VX-950. The ratio of the two compounds, based on the compound's EC50, remained fixed across the dosing range. The potential cytotoxicity of individual compounds was assessed with a luminescent ATP-based cell viability assay (Cell Titer-Glo; Promega). Cell culture and luciferase compound assays were performed as previously described in Example 3.
Compound interactions were quantified by the approach described by Chou and Talalay, relying on the median effect principle and the multiple-drug effect equation. […] Isobolograms were generated for each combination tested and were used to determine the additivity, synergism or antagonism of inhibitor combinations. Combination indices (CI) were determined with Calcusyn (Biosoft) for each experiment at the EC50, EC75, and EC90 of the combination. By convention, a CI of <0.9 was considered synergistic, a CI of ≧0.9 or ≦1.1 was considered additive, and a CI of >1.1 was deemed antagonistic. […] Combination indices (CI) were determined with Calcusyn (Biosoft) for each experiment at the EC50, EC75, and EC90 of the combination. By convention, a CI of <0.9 was considered synergistic, a CI of ≧0.9 or ≦1.1 was considered additive, and a CI of >1.1 was deemed antagonistic.
HCV2aChLuc (NS3:A156S) = assay: Infectivity of protease mutant virus versus wild type in the presence of compounds; type: cell-based, HCV genotype 2a; conditions: HCV2aChLuc (NS3:A156S) vs wild type HCV2aChLuc
Text: Therefore, we introduced A156S mutation in the backbone of HCV2aChLuc genome and investigated the infectivity of the mutant virus in the presence of compounds.

[2] = system: HCV2aCh (E2:G451R) mutant virus; assay: E2:G451R mutant virus, Taqman assay for viral RNA copies; type: cell-based, HCV genotype 2a; conditions: 0-500 nM; about 27.5 hours after virus exposure
Experimental: Two 24-well plates were seeded with 4×10^4 cells/well. The following day, cell culture supernatant was aspirated and cells were exposed to HCV2aCh wild type (black bars) and HCV2aCh (E2:G451R) mutant (blue bars), Approximately 250 μl of cell culture virus was added to each well (˜1×10^4 TCID/well or moi ˜0.25). Immediately after the addition of virus to the well, 2.5 μl of 100× concentration of compound was added to each well—and mixed multiple times with a 100 ul pipet tip—to achieve final compound dilutions: 0 nM, 5 nM, 15 nM, 50 nM, 150 nM, and 500 nM. Compound 5 was tested. Each plate was processed consecutively. After addition of virus and compound the plates were placed in the incubator for ˜3.5 hours (37° C., 5% CO2). Following incubation, the supernatant was replaced with fresh media (˜1 ml/well) and plates were returned to incubator. Twenty-four hours later (˜27.5 hours following virus exposure to the cells), cells were washed once with 1 ml of PBS and then the cells were processed for Taqman analysis.

Jc1-luc virus = assay: Synergy testing (Combination Index) in Jc1-luc system; type: cell-based, HCV genotype-2a
Experimental: Luciferase compound activity assay. Cell culture and luciferase compound assays were performed as previously described. See Wyles et al., J. Virol. 2007, 81:3005-8; Wyles et al., Antimicrob Agents Chemother. 2009, 53:2660-2; Grünberger et al., J. Infect. Dis. 2008, 197:42-5; Wyles et al., Antimicrob Agents Chemother, 2008, 52:1862-4. Briefly, Huh7.5.1 cells were seeded into 96-well plates at a density of 10,000 cells per well in 100 μl medium. After incubating overnight for attachment, Jc1-luc virus at an MOI 0.01 was added to wells with or without compounds at the specified concentrations. All conditions were run in triplicate. After 24 hours, medium was aspirated and replaced with 100 μl of complete medium containing an identical concentration of compound(s) followed by additional 48 hour incubation. The luciferase assay (Bright-Glo; Promega) was carried out according to the manufacturer's instructions. Luciferase activity was determined using a microplate luminometer (Veritas microplate luminometer; Turner Biosystems). The relative light units (RLU) for each condition were reported as the mean±the standard error of the mean for the three wells.
Synergy testing. The 50% effective concentration (EC50) of Compound 5 and other anti-HCV compounds was determined independently and used to set the range of concentrations for synergy experiments.
(§1) Data analysis. Determinations of compound interactions were quantified based on the median-effect principle described by Chou and Talalay. Chou T., Talalay P., Adv. Enzyme. Regul., 1984, 22:27-55. Combination indices (CIs) were determined using Calcusyn (Biosoft) for each experiment at the EC50, EC75, and EC90 levels. Five replicates per condition were evaluated. A CI<0.9 was considered synergistic, a CI≧0.9 and ≦[…] was considered additive, and a CI>1.1 was deemed antagonistic.

HCV2a/2aChRluc virus = assay: Compound 5 with ribavirin or VX950 in the HCV2a/2aChRluc system; type: cell-based, HCV genotype 2a
Experimental: 100 μl of serially diluted compound solutions (100, 30, 10, 3, 1, 0.3, and 0.1 nM) was inoculated onto Huh-7 cells in a 96-well plate. Subsequently, 100 ul (TCID50, ˜0.6) of HCV2a/2aChRluc virus was added onto the cells. After co-incubation for 72 hrs, Renilla luciferase expression was determined (Renilla Luciferase Assay, Promega) and reported as relative light units (RLU).
as §1

SR-B1 pathway [3] = conditions: cited from earlier work
SR-B1 pathway [4] = conditions: human subjects; cited from earlier work

With `COc1c(NC(=O)C(=O)c2ccc(OCCN3CCOCC3)c3ccccc23)cc(C(C)(C)C)cc1NS(C)(=O)=O` [Compound 5, N-(5-tert-butyl-2-methoxy-3-(methylsulfonamido)phenyl)-2-(4-(2-morpholinoethoxy)naphthalen-1-yl)-2-oxoacetamide] the “inhibitory effect on BVDV infection” value [1] was “No significant inhibitory effect”, the “inhibition of HCV1a chimeric virus” value (HCV1a/2a chimeric virus) was “inhibited” and the “effect of combination with VX-950” value (HCV) was “additive to slightly synergistic effects”. The “resistance of NS3:A156S mutant virus versus wild type (inhibition of infectivity)” value (HCV2aChLuc (NS3:A156S)) was “no significant difference”, the “sensitivity of E2 mutant virus relative to wild-type virus, Taqman assay for viral RNA copies” value [2] was “greater resistance” and the “antagonism with any compound studied” value (Jc1-luc virus) was “not antagonistic”. For the same compound, the “Combination Index (CI) with 2′-C-methyladenosine” value (Jc1-luc virus; at 50% effective dose (ED50)) was 1.09, the “Combination Index (CI) with BILN2061” value (Jc1-luc virus; at 50% effective dose (ED50)) was 0.98 and the “Combination Index (CI) with interferon-alpha” value (Jc1-luc virus; at 50% effective dose (ED50)) was 1.00. The “interaction with VX1” value (Jc1-luc virus; at ED50, ED75 and ED90) was “consistent synergy”, the “interaction with all compounds tested” value (Jc1-luc virus; at ED75 and ED90) was “synergy” and the “interaction with VX-950” value (HCV2a/2aChRluc virus; HCV2a/2aCHRLuc system) was “consistent synergy”. The “effect of combination with ribavirin” value (HCV2a/2aChRluc virus; ribavirin 15 μM) was “no antagonistic effect”, the HDL levels (SR-B1 pathway [3]; mice with a knock-out in the SR-B1 gene) was “not” and the HDL levels (SR-B1 pathway [3]; mice) was “raised HDL levels”. The HDL levels (SR-B1 pathway [4]) was “raised HDL levels”.

From patent US20110117055A1, “Methods of Treating Hepatitis C Virus with Oxoacetamide Compounds” (priority 2009, published 2011)
